This note sets out measurements from patent US20060040871A1, “Bacterial transforming agent” (priority 2003, published 2006).

For this experiment, the system named is MRSA. Description: Antimicrobial plus BTA against recent clinical MRSA isolates (Table 7). The class given is cell-based, Staphylococcus aureus. Particulars: for Oxacillin (antimicrobial plus BTA; quantity not named, MIC implied): oxacillin alone. The source says:
The four clinical isolates were isolated from patients during the first three months of 2003. […] An intermediate MRSA has been included, as methicillin-resistance has been achieved by means other than production of PBP2a.

Take `CC1=C(C(=O)O)N2C(=O)[C@@H](NC(=O)[C@H](N)c3ccccc3)[C@H]2SC1` [Cephalexin, cephalexin]: the Cephalexin (antimicrobial plus BTA; quantity not named, MIC implied) (I-MRSA, cephalexin alone) is 32 µg/mL.
`Cc1onc(-c2ccccc2)c1C(=O)N[C@@H]1C(=O)N2[C@@H]1SC(C)(C)[C@@H]2C(=O)O` [Oxacillin, oxacillin]: the Oxacillin (antimicrobial plus BTA; quantity not named, MIC implied) reads like this: (EMRSA-16) 256 µg/mL; (EMRSA-17) 256 µg/mL; (I-MRSA) 32 µg/mL.
